US20240158446A1, “CYCLIC COMPOUND HAVING SELECTIVE INHIBITORY ACTION ON KRAS OVER HRAS AND NRAS” (CHUGAI SEIYAKU KABUSHIKI KAISHA, priority 2021, published 2024)

What was measured:
[1] = target: GDP-bound NRAS wild-type protein (Homo sapiens, UniProt P01111); assay: Binding to NRAS by surface plasmon resonance (SPR), Single Cycle Kinetics; conditions: SPR KD ratio NRAS/KRAS, class symbols
[2] = target: GDP-bound HRAS wild-type protein (Homo sapiens, UniProt P01112); assay: Binding to HRAS by surface plasmon resonance (SPR), Single Cycle Kinetics; conditions: SPR KD ratio HRAS/KRAS, class symbols
Chain of GDP-bound HRAS wild-type protein (P01112 whole entry): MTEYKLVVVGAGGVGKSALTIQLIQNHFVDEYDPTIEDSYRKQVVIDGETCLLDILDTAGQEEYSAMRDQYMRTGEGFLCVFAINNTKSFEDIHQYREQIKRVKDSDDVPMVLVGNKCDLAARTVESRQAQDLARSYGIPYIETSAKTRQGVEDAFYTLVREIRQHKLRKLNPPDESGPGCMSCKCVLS

[3] = system: human lung cancer strain NCI-H441;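 note: cell proliferation inhibition after four days measured by CellTiter-Glo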
[4] = target: GDP-bound KRAS wild-type protein (Homo sapiens, UniProt P01116); assay: Binding to KRAS by surface plasmon resonance (SPR), Single Cycle Kinetics; conditions: SPR Single Cycle Kinetics, GDP-bound KRAS wild-type protein, 1:1 binding model; read-out: KRAS KD
Chain of GDP-bound KRAS wild-type protein (P01116 whole entry): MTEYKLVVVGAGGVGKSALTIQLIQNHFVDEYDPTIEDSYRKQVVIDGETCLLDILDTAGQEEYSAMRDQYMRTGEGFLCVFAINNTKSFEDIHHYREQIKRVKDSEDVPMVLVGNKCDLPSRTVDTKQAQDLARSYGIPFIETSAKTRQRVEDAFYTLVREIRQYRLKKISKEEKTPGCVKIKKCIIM

Chain of GDP-bound NRAS wild-type protein (P01111 whole entry): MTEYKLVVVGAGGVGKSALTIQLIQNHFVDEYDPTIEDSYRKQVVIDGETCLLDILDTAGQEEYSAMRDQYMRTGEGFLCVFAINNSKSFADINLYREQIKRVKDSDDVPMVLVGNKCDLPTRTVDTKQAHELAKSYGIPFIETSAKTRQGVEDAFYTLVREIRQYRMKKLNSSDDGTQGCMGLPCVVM

SMILES | NRAS/KRAS (ratio of KD value with respect to GDP-bound NRAS wild-type protein to KD value with respect to KRAS) [1] | HRAS/KRAS (ratio of KD value with respect to GDP-bound HRAS wild-type protein to KD value with respect to KRAS) [2] | IC50 [3] | Kd [4]
CCC(CC)[C@H]1C(=O)N(C)[C@H](C(=O)N(C)C)CC(=O)N(C)[C@@H](COC)C(=O)N[C@@H]([C@@H](C)CC)C(=O)N(C2CC2)CC(=O)N(C)[C@H]2C/C=C\CCN(C2=O)[C@@H](Cc2ccc(C(F)F)cc2)C(=O)N(C)CC(=O)N[C@@H](CCc2cc(F)c(C(F)(F)F)c(F)c2)C(=O)N2C[C@H](OC3CCC3)C[C@H]2C(=O)NC2(CC(C)(C)C2)C(=O)N1C [PP2631] | AA (a compound having 20 or more is denoted as AA) | A (a compound having 10 or more and less than 20 is denoted as A) | 56.9 nM | 0.5 nM
CCC(CC)[C@H]1C(=O)N(C)[C@H](C(=O)N(C)C)CC(=O)N(C)[C@@H](COC)C(=O)N[C@@H]([C@@H](C)CC)C(=O)N(C2CC2)CC(=O)N(C)[C@H]2C/C=C\CCN(C2=O)[C@@H](Cc2ccc(C(F)F)cc2)C(=O)N(C)CC(=O)N[C@@H](CCc2cc(F)c(C(F)(F)F)c(F)c2)C(=O)N2C[C@H](OC3CCCC3)C[C@H]2C(=O)NC2(CC(C)(C)C2)C(=O)N1C [PP2633] | AA (a compound having 20 or more is denoted as AA) | A (a compound having 10 or more and less than 20 is denoted as A) | 29 nM | 0.64 nM
CC[C@H](C)[C@@H]1NC(=O)[C@H](COC)N(C)C(=O)C[C@@H](C(=O)N(C)C)N(C)C(=O)[C@H](C2CCCC2)N(C)C(=O)C2(CC(C)(C)C2)NC(=O)[C@@H]2C[C@@H](OC3CCCC3)CN2C(=O)[C@H](CCc2cc(F)c(C(F)(F)F)c(F)c2)NC(=O)CN(C)C(=O)[C@H](CC2CCC(F)(F)CC2)N2CC/C=C\C[C@@H](C2=O)N(C)C(=O)CN(C2CC2)C1=O [PP2634] | A (a compound having 10 or more and less than 20 is denoted as A) | A (a compound having 10 or more and less than 20 is denoted as A) | 45.4 nM | 0.68 nM
CCO[C@@H]1C[C@H]2C(=O)NC3(CC(C)(C)C3)C(=O)N(C)[C@@H](C(CC)CC)C(=O)N(C)[C@H](C(=O)N(C)C)CC(=O)N(C)[C@@H](COC)C(=O)N[C@@H]([C@@H](C)CC)C(=O)N3CCC[C@H]3C(=O)N(C)[C@H]3C/C=C\CCN(C3=O)[C@@H](Cc3ccc(C(F)(F)F)cc3)C(=O)N(C)CC(=O)N[C@@H](CCc3ccc(Cl)c(Cl)c3)C(=O)N2C1 [PP2635] | AA (a compound having 20 or more is denoted as AA) | A (a compound having 10 or more and less than 20 is denoted as A) | 50.2 nM | 0.97 nM
CCC[C@H]1C(=O)N[C@@H]([C@@H](C)CC)C(=O)N2CCC[C@H]2C(=O)N(C)[C@H]2C/C=C\CCN(C2=O)[C@@H](Cc2ccc(C(F)F)cc2)C(=O)N(C)CC(=O)N[C@@H](CCc2ccc(Cl)c(Cl)c2)C(=O)N2C[C@H](OCC)C[C@H]2C(=O)NC2(CC(C)(C)C2)C(=O)N(C)[C@@H](C(CC)CC)C(=O)N(C)[C@H](C(=O)N(C)C)CC(=O)N1C [PP2637] | AA (a compound having 20 or more is denoted as AA) | A (a compound having 10 or more and less than 20 is denoted as A) | 61.4 nM | 1 nM
CCC[C@H]1C(=O)N[C@@H]([C@@H](C)CC)C(=O)N2CCC[C@H]2C(=O)N(C)[C@H]2C/C=C\CCN(C2=O)[C@@H](Cc2ccc(C)cc2)C(=O)N(C)CC(=O)N[C@@H](CCc2ccc(Cl)c(Cl)c2)C(=O)N2C[C@H](OCC)C[C@H]2C(=O)NC2(CC(C)(C)C2)C(=O)N(C)[C@@H](C(CC)CC)C(=O)N(C)[C@H](C(=O)N(C)C)CC(=O)N1C [PP2638] | AA (a compound having 20 or more is denoted as AA) | A (a compound having 10 or more and less than 20 is denoted as A) | 97 nM | 2.5 nM
CCC(CC)[C@H]1C(=O)N(C)[C@H](C(=O)N(C)C)CC(=O)N(C)[C@@H](COC)C(=O)N[C@@H]([C@@H](C)CC)C(=O)N2CCC[C@H]2C(=O)N(C)[C@H]2C/C=C\CCN(C2=O)[C@@H](Cc2ccc(C(F)(F)F)cc2)C(=O)N(C)CC(=O)N[C@@H](CCc2ccc(Cl)c(Cl)c2)C(=O)N2C[C@H](OC(C)C)C[C@H]2C(=O)NC2(CC(C)(C)C2)C(=O)N1C [PP2639] | AA (a compound having 20 or more is denoted as AA) | A (a compound having 10 or more and less than 20 is denoted as A) | 81.6 nM | 1.1 nM
